Source: the supplement of paper PMC10307832

Assays:
Test in all cases: relative viability (nuclei count vs DMSO), 5 days (fraction); higher = more cells survive
[1] = compound: CCN1C(=O)C2=CC(=C(N=C2N(C1=O)C3CC3)N)C(=O)N + O=C(c1cc(Cc2n[nH]c(=O)c3ccccc23)ccc1F)N1CCN(C(=O)C2CC2)CC1 [Olaparib] (partner 8 µM)
In short: (§1)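 Cells from lung cancer lines were seeded into 1536-well plates and, one day later, dosed by pin tool. Treatments were either a single drug or a fixed dose of an anchor drug with five library-drug doses (not always all listed) in √10 steps. After 5 days, nuclei were stained in a one-step fixation (final 0.05% Triton X-100, 1% formaldehyde, 1 ug/ml Hoechst) and counted on 4× images, and relative viability is the treated-to-vehicle nuclei ratio, as the median of duplicate plates.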

[2] = compound: CCN1C(=O)C2=CC(=C(N=C2N(C1=O)C3CC3)N)C(=O)N + Nc1nc2[nH]cc(CCc3ccc(C(=O)N[C@@H](CCC(=O)O)C(=O)O)cc3)c2c(=O)[nH]1 [Pemetrexed] (partner 0.2 µM)
In short: as §1

[3] = compound: CCN1C(=O)C2=CC(=C(N=C2N(C1=O)C3CC3)N)C(=O)N + C[C@]1(O)C[C@@H](c2nc(-c3ccc4ccc(-c5ccccc5)nc4c3)c3c(N)nccn32)C1 [Linsitinib] (partner 1 µM)
In short: as §1

[4] = compound: CCN1C(=O)C2=CC(=C(N=C2N(C1=O)C3CC3)N)C(=O)N + C[C@@H](Oc1cc(-c2cnn(C3CCNCC3)c2)cnc1N)c1c(Cl)ccc(F)c1Cl [Crizotinib] (partner 1 µM)
In short: as §1

[5] = compound: CCN1C(=O)C2=CC(=C(N=C2N(C1=O)C3CC3)N)C(=O)N + CC(=O)Nc1cccc(-n2c(=O)n(C3CC3)c(=O)c3c(Nc4ccc(I)cc4F)n(C)c(=O)c(C)c32)c1 [Trametinib] (partner 0.02 µM)
In short: as §1

| Cell Line | relative viability ([1]; first compound 0.253 µM) | relative viability ([1]; first compound 0.8 µM) | relative viability ([1]; first compound 2.53 µM) | relative viability ([1]; first compound 8 µM) | relative viability ([2]; first compound 0.253 µM) | relative viability ([2]; first compound 0.8 µM) | relative viability ([2]; first compound 2.53 µM) | relative viability ([2]; first compound 8 µM) | relative viability ([3]; first compound 0.253 µM) | relative viability ([3]; first compound 0.8 µM) | relative viability ([3]; first compound 2.53 µM) | relative viability ([3]; first compound 8 µM) | relative viability ([4]; first compound 0.253 µM) | relative viability ([4]; first compound 0.8 µM) | relative viability ([4]; first compound 2.53 µM) | relative viability ([4]; first compound 8 µM) | relative viability ([5]; first compound 0.253 µM) | relative viability ([5]; first compound 0.8 µM) | relative viability ([5]; first compound 2.53 µM) | relative viability ([5]; first compound 8 µM) |
| --- | --- | --- | --- | --- | --- | --- | --- | --- | --- | --- | --- | --- | --- | --- | --- | --- | --- | --- | --- | --- |
| 201T | 0.87 | 0.869 | 0.832 | 0.901 | 0.328 | 0.309 | 0.34 | 0.313 | 1 | 0.991 | 0.952 | 1.01 | 1.08 | 0.97 | 0.98 | 1.03 | 0.744 | 0.702 | 0.686 | 0.724 |
| A-427 | 0.763 | 0.792 | 0.703 | 0.744 | 0.952 | 0.927 | 1.08 | 0.927 | 1.24 | 1.11 | 1.04 | 1.1 | 0.986 | 1.08 | 0.774 | 1.06 | 0.827 | 0.7 | 0.7 | 0.767 |
| ABC-1 | 0.92 | – | 1.05 | 0.742 | – | – | – | – | 0.825 | 0.989 | 0.72 | 0.876 | 1.21 | 1.04 | 1.18 | 1.32 | – | – | – | – |
| BEN | 1.16 | 1.09 | 1.01 | 1.08 | 0.896 | 0.842 | 0.929 | 0.699 | 0.961 | 0.92 | 0.919 | 0.954 | 0.713 | 0.865 | 0.903 | 1.07 | 0.915 | 0.937 | 1.11 | 1.05 |
| CAL-12T | 0.734 | 0.717 | 0.682 | 0.658 | 1.02 | 1.31 | 1.06 | 1.15 | 0.792 | 0.773 | 0.721 | 0.776 | 0.549 | 0.595 | 0.702 | 0.783 | 0.42 | 0.354 | 0.386 | 0.328 |
| COR-L23 | 0.413 | 0.319 | 0.19 | 0.398 | 0.188 | 0.202 | 0.191 | 0.213 | 0.89 | 0.9 | 0.776 | 1.03 | 0.594 | 0.635 | 0.567 | 0.695 | 0.581 | 0.584 | 0.591 | 0.592 |
| COR-L 105 | 0.728 | 0.768 | 0.779 | 0.677 | 0.941 | 1.01 | 0.991 | 1.16 | 1.12 | 1.04 | 0.945 | 0.939 | 0.915 | 0.726 | 0.732 | 0.995 | 0.478 | 0.428 | 0.378 | 0.47 |
| ChaGo-K-1 | 0.442 | 0.437 | 0.404 | 0.434 | 0.272 | 0.264 | 0.263 | 0.246 | – | – | – | – | 1.14 | 1.13 | 1.14 | 1.41 | 0.922 | 0.951 | 0.861 | 0.875 |
| EKVX | 0.849 | 0.972 | 0.792 | 0.682 | 0.397 | 0.414 | 0.282 | 0.351 | 1.03 | 1.03 | 0.934 | 0.998 | 1.07 | 1.14 | 0.837 | 1.05 | 0.378 | 0.359 | 0.372 | 0.371 |
| EMC-BAC-2 | 0.546 | – | 0.498 | 0.487 | 0.461 | – | 0.403 | 0.431 | 0.848 | 0.837 | 0.754 | 0.888 | 0.841 | 0.734 | 0.713 | 0.855 | 0.871 | – | 0.766 | 0.9 |
| EPLC-272H | – | 0.752 | 0.975 | 1.08 | – | 0.265 | 0.301 | 0.368 | 1.18 | 1.28 | 1.37 | 1.36 | 0.997 | 0.998 | 0.906 | 0.988 | 0.261 | 0.239 | 0.327 | 0.298 |
| H3255 | 0.567 | 0.556 | 0.567 | 0.633 | 0.588 | 0.555 | 0.536 | 0.558 | 0.879 | 0.908 | 0.835 | 1.03 | 0.805 | 0.936 | 0.885 | 0.965 | 0.587 | 0.578 | 0.567 | 0.636 |
| HARA | 0.897 | 0.904 | 0.915 | 0.841 | 0.223 | 0.232 | 0.246 | 0.216 | 0.971 | 0.942 | 0.829 | 0.94 | 1.1 | 1.04 | 0.946 | 1.16 | 0.513 | 0.914 | 0.56 | 0.545 |
| HCC-15 | 0.749 | 0.774 | 0.651 | 0.725 | 0.231 | 0.221 | 0.2 | 0.235 | 0.867 | 0.908 | 0.879 | 0.913 | 0.789 | 0.829 | 0.909 | 0.872 | 0.412 | 0.382 | 0.369 | 0.429 |
| HCC-44 | 0.982 | 0.976 | 0.999 | 0.975 | 0.588 | 0.641 | 0.613 | 0.668 | 0.693 | 0.634 | 0.69 | 0.641 | 0.844 | 0.826 | 0.772 | 0.851 | 1.18 | 0.975 | 1.06 | 1.04 |
| HCC-78 | 0.807 | 0.902 | 0.691 | 0.959 | 0.866 | 0.949 | 0.813 | 0.842 | 0.516 | 0.434 | 0.482 | 0.675 | 0.349 | 0.327 | 0.292 | 0.379 | 0.706 | 0.733 | 0.812 | 0.788 |
| HCC-366 | 0.351 | 0.361 | 0.361 | 0.37 | 0.167 | 0.17 | 0.155 | 0.163 | 0.726 | 0.65 | 0.623 | 0.6 | 0.615 | 0.6 | 0.537 | 0.968 | 0.416 | 0.433 | 0.348 | 0.343 |
